Data published in PubChem BioAssay AID1259342 (Broad Institute, 2017).
The source made the active and inactive calls.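 How the source made its calls: active means fitted half-maximal inhibitory concentration AC50 at most ten times the top concentration tested; inconclusive means flat fit with 30 to 70% inhibition, or unusable fit; inactive means AC50 above ten times the top concentration.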

The molecules below were run against E3 ubiquitin-protein ligase TRIM62 (Homo sapiens) (UniProt Q9BVG3) (assay: TRIM62 E3 ligase activity on CARD9 – biochemical, ubiquitin ELISA, AlphaLISA TUBE, CARD9-TRIM62 disruptor project, dose response (AID 1259342;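 on AC50: potency is for inhibitors that reduce CARD9 ubiquitylation signal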)). Conditions: TRIM62-mediated CARD9 ubiquitylation, AlphaLISA TUBE detection.
Chain of E3 ubiquitin-protein ligase TRIM62 (Homo sapiens) (Q9BVG3 whole entry, looked up): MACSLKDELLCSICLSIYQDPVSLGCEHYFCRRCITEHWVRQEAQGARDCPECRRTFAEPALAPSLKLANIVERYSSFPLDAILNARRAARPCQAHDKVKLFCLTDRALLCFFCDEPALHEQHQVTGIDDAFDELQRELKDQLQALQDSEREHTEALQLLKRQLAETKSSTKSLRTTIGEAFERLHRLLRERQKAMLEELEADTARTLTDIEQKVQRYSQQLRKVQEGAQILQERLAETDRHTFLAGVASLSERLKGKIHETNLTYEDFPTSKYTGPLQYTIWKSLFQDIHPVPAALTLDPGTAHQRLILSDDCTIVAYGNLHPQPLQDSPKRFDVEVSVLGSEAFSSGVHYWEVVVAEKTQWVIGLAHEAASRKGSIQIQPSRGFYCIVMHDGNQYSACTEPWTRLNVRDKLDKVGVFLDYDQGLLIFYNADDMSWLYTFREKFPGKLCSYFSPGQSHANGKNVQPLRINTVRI

SMILES	AC50
CCC1c2ccc(C)n2CCN1C(=O)Nc1ccccc1C(=O)OC (stereo unspecified)	72.5 µM
CC(=O)c1cccc(OCC(=O)N(C)CC(=O)NCc2ccco2)c1	1.35 µM
O=C1CS/C(=N\N=C\c2ccco2)N1c1ccccc1	22.2 µM
Nc1c2c(nc3ccccc13)CCN(Cc1ccccc1)C2	> 160 µM (inactive)
O=c1oc(-c2ccccc2)nc2sc3c(c12)CCC3	> 160 µM (inactive)
COc1ccc(S(=O)(=O)N2CCOCC2)cc1NC(=O)c1cccc(-n2cccc2)c1	3.62 µM
CCOC(=O)c1[nH]c(Cc2[nH]c(C(=O)OCC)c(C)c2C)c(C)c1C	> 160 µM (inactive)
O=C(Nc1nc(-c2ccco2)c(-c2ccco2)s1)C1CCC1	6.56 µM
O=S(=O)(c1ccc2nc(-c3ccco3)c(-c3ccco3)nc2c1)N1CCOCC1	31.1 µM
O=C(Cc1cccs1)Nc1nnc(Cc2ccccc2)s1	41.2 µM
CC1Cc2ccccc2N1CC(=O)NC(=O)NC(C)(C)C (stereo unspecified)	> 160 µM (inactive)
Cc1oc(CSCc2cc(C(=O)O)c(C)o2)cc1C(=O)O	> 160 µM (inactive)
N#CCSc1nc2c(c(=O)n1Cc1ccco1)C1(CCCC1)Cc1ccccc1-2	57 µM
O=C(CC1Nc2ccccc2OC1=O)Nc1ccc(Cl)cc1 (stereo unspecified)	> 160 µM (inactive)
NC(=O)C1(N2CCCCC2)CCN(c2ncc(NC(=O)c3cccc(Cl)c3)cc2C(=O)O)CC1	14.2 µM
O=C(Nc1nccs1)c1cc(-c2ccccn2)nc2c(Cl)cccc12	75.4 µM
COc1ccc2nc(-c3ccco3)c(-c3ccco3)nc2c1	24.9 µM
O=S(=O)(Nc1nc2ccc(S(=O)(=O)N3CCCCC3)cc2s1)c1ccccc1	42.2 µM

SMILES	AC50
Cc1ccc(-c2cc(C(=O)Nc3ccccn3)c3ccccc3n2)o1	60.9 µM
O=C(Nc1nc(-c2ccco2)c(-c2ccco2)s1)c1ccco1	4.63 µM
CC1(C)Cc2ccccc2-c2nc(-c3ccccc3)oc(=O)c21	6.32 µM
O=C(O)C1Oc2cc3ccccc3cc2O1	3.02 µM
CC(=O)Nc1ccc2nc3c(=O)n(C)c(=O)n(C)c3nc2c1	48.2 µM
NC(=O)C1(N2CCCCC2)CCN(c2ncc(NC(=O)c3ccccc3)cc2C(=O)O)CC1	6.61 µM
O=C(Cn1c(=O)cc(C(=O)N2CCc3ccccc3C2)c2ccccc21)NCc1ccc2c(c1)OCO2	11.8 µM
O=C(NCCCN1CCOCC1)c1cc(-c2ccco2)nc2ccccc12	11.3 µM
O=S(=O)(Nc1nccs1)c1ccc(-n2cccc2)cc1	17.4 µM
CC(=O)c1sc2nc(-c3ccco3)ccc2c1N	24.5 µM
O=C(O)c1ccc2nc(-c3ccco3)c(-c3ccco3)nc2c1	11.8 µM
CC(C)C(CC(=O)NCc1ccco1)c1ccco1 (stereo unspecified)	5.47 µM
COc1ccc(-n2c(C)c3c(OC)cccc(=O)c3c2C)cc1	27.6 µM
COc1cccc(NC(=O)CN(C)C(=O)c2cc3c(s2)CCC3)c1	8.47 µM
O=C(CN1CCN(c2ccccc2O)CC1)NC(=O)NC1CCCC1	> 160 µM (inactive)
CCCN1CCc2nc(SCc3nc(-c4ccc(OC)cc4OC)oc3C)[nH]c(=O)c2C1	> 160 µM (inactive)
C(=C\c1ccco1)/c1nc2ccccc2[nH]1	29 µM
COc1ccc(N2CC3=C(N2)c2ccccc2CC3)cc1	54 µM

Same assay, conditions: TRIM62-mediated CARD9 ubiquitylation, AlphaLISA TUBE detection; at 38 µM (top of the series)

SMILES	activity change, negative = inhibition
O=C(Nc1nc(-c2nc3ccccc3s2)cs1)c1ccco1	inactive
O=C(Nc1nc(-c2ccccn2)cs1)c1cccc(-n2cnnn2)c1	inactive
O=C(NCCc1ccco1)c1ccc(OCc2cn3ccccc3n2)cc1	inactive
NC(=O)C1(N2CCCCC2)CCN(c2ncc(NC(=O)c3ccc(F)cc3)cc2C(=O)O)CC1	inactive
Cc1ccc(Nc2nc(C(=O)Nc3ccc(Br)cc3)nc3ccccc23)cc1	inactive

Same assay, conditions: TRIM62-mediated CARD9 ubiquitylation, AlphaLISA TUBE detection; at 80 µM (top of the series)

SMILES	activity change, negative = inhibition
CCN1CCOC(=O)C1CC(=O)Nc1cccc(C)c1 (stereo unspecified)	inactive
Cc1cncc(-c2ccc(S(N)(=O)=O)cc2F)c1	inactive
O=C(CCc1nc(-c2ccccc2)no1)NCC1CNCCOC1 (stereo unspecified)	inactive
O=C(CCN1CCOCC1)c1ccc2c(c1)OCCO2	inactive
Cc1ccc(C(=O)Nc2ccc(N3CCC(C(N)=O)(N4CCCCC4)CC3)c(C(=O)O)c2)cc1	inactive
Cc1ccc2c(c1)C(N1CCCC1=O)CC(c1ccco1)N2 (stereo unspecified)	inactive
O=C(NC1(C(F)(F)F)Oc2ccc(Cl)cc2O1)N1CCC2(CC1)OCCO2 (stereo unspecified)	inactive
O=C(Nc1nnc(-c2ccco2)s1)c1ccccc1	inactive
CN(C)c1ccc(CN2C[C@H]3CC[C@@H]2CN(C(=O)c2ccncc2)C3)cn1	inactive
O=C(CCn1cncn1)N1CCC(n2cc(-c3ccccn3)nn2)CC1	inactive
O=[N+]([O-])c1cccc(-c2nnc3ccc4ccccc4n23)c1	inactive
N#Cc1c2c(c(NCc3ccco3)n3c1nc1ccccc13)CCC2	inactive
CCCN1CCCn2nc(CNC(=O)[C@@H](N)Cc3ccc(O)cc3)cc2C1	inactive
CC1(C)Cc2c(c(N3CCOCC3)nc3sc(C(=O)NCc4ccco4)c(N)c23)CO1	inactive
C=CCNc1ncnc2c1CCN(C(=O)c1ccc(CSC)o1)CC2	inactive
O=C(Nc1cccc2ccccc12)NC1CC1	inactive
CCCc1oc(C(=O)O)cc1CN	inactive
c1cn(CCc2noc(C3CCCC3)n2)c(-c2cc3n(n2)CCCNC3)n1	inactive
FC(F)(F)c1cc(Cl)c2nnc(C(F)(F)Cl)n2c1	inactive
O=C(NCc1ccco1)C1CCCN(S(=O)(=O)c2cccc3nonc23)C1 (stereo unspecified)	inactive
COCCC(=O)N1CCCC2(CCN(CCN3CCCC3)C2=O)C1 (stereo unspecified)	inactive
O=C1c2ccccc2S(=O)(=O)N1Cc1cccc(S(=O)(=O)N2CCOCC2)c1	inactive
COC[C@]1(O)CCN(C(=O)CCN(C)S(C)(=O)=O)CC1(C)C	inactive

SMILES	activity change, negative = inhibition
O=C1C=C(c2ccccc2)Nc2ccccc2N1	inactive
CCN1CCN(C(=O)c2cc(-c3ccco3)nc3ccccc23)CC1	inactive
O=C(CN1CCOC1=O)N1CCC2(CCC(=O)N(CCCn3ccnc3)C2)CC1	inactive
NC(=O)C1(N2CCCCC2)CCN(c2ccc(NC(=O)c3cccc(Cl)c3)cc2C(=O)O)CC1	inactive
CS(=O)(=O)c1ccc2ccn(O)c2c1	inactive
O=C(COC(=O)c1cc(-c2ccco2)nc2ccccc12)NCc1ccc2c(c1)OCO2	inactive
COCCCNC(=O)C1CCN(c2ccc(N3CCOCC3)nn2)CC1	inactive
COc1ccc(N2Cc3cccc(C(=O)NC(C)CCc4ccco4)c3C2=O)cc1 (stereo unspecified)	inactive
CCOC(=O)c1ccc(-c2ccc(C3CC(=O)Nc4cc5c(cc43)OCCO5)o2)cc1 (stereo unspecified)	inactive
Clc1ccc2nc(CN3CCCCCC3)cn2c1	inactive
Cc1occc1C(=O)NCc1cccc(CNC(=O)c2ccoc2C)c1	inactive
N#CNc1nc(O)cc(=O)[nH]1	inactive
Cc1ccc2cc(CN(Cc3ccco3)S(C)(=O)=O)c(=O)[nH]c2c1	inactive
CS(=O)(=O)N1CCN(c2ccc([N+](=O)[O-])c(SCc3ccco3)c2)CC1	inactive
COc1ccc(Nc2nc(-c3nnc(-c4ccc(F)cc4)o3)nc3ccccc23)cc1Cl	inactive
Cc1cc(C)c2c(N)c(C(=O)Nc3cccc4ccccc34)sc2n1	inactive
CN(c1ccccc1C(=O)NCc1ccco1)S(C)(=O)=O	inactive
Cc1ccc(C2CC(=O)C3=C(C2)Nc2ccccc2NC3c2cccnc2)cc1 (stereo unspecified)	inactive
O=[N+]([O-])c1ccc2cc[nH]c2c1	inactive
O=C(NC(Sc1ncccn1)C(=O)c1ccccc1)c1ccccc1 (stereo unspecified)	inactive
O=C(Nc1ccc2oc(-c3ccncc3)nc2c1)c1ccc2c(c1)OCCO2	inactive
N#Cc1c(-c2ccco2)cc(-c2cccnc2)nc1N	inactive
